In patent US9485989B2, “Method of controlling neonicotinoid resistant hemiptera” (Syngenta Participations AG, priority 2010, dated 2016):

Test system: not given
Assay: not given
Details: not given

melting point | Structure (SMILES)
121 to 123 °C | CON1CCC2(CC1)C(O)=C(c1cc(C)ccc1C)C(=O)N2C [P2.1]
191 to 193 °C | CON1CCC2(CC1)C(O)=C(c1cc(C)c(C)cc1Br)C(=O)N2C [P2.23]
176 to 178 °C | COCON1C(=O)C(c2c(C)cc(Cl)cc2C)=C(O)C12CCN(OC)CC2 [P2ii.104]
149 to 150 °C | CCOC(=O)OC1=C(c2cc(C)c(C)cc2Cl)C(=O)N(C)C12CCN(OC)CC2 [P1.22]
101 to 103 °C | CCOC(=O)OC1=C(c2c(C)cc(C)cc2C)C(=O)N(CC)C12CCN(OC)CC2 [P1.8]
191 to 192 °C | CON1CCC2(CC1)C(O)=C(c1cc(C)c(C)cc1Cl)C(=O)N2C [P2.26, 3-(2-Chloro-4,5-dimethyl-phenyl)-4-hydroxy-8-methoxy-1-methyl-1,8-diaza-spiro[4.5]dec-3-en-2-one]
96 to 110 °C | CCOC(=O)OC1=C(c2cc(C)ccc2C)C(=O)N(C)C12CCN(OC)CC2 [P1.1]
63 to 64 °C | COCCON1C(=O)C(c2cc(Br)c(C)cc2C)=C(O)C12CCN(OC)CC2 [P2ii.73]
169 to 172 °C | CON1CCC2(CC1)C(O)=C(c1c(C)cc(C)cc1C)C(=O)N2OCC1CCCCC1 [P2ii.96]
218 to 221 °C | CCN1C(=O)C(c2c(C)cc(C)cc2C)=C(O)C12CCN(OC)CC2 [P2.11]
88 to 92 °C | CON1CCC2(CC1)C(O)=C(c1c(C)cc(Cl)cc1C)C(=O)N2OC [P2ii.102]
135 to 137 °C | CON1CCC2(CC1)C(O)=C(c1c(C)cc(C)cc1C)C(=O)N2OCCOC1CCCCO1 (stereo not shown) [P2ii.22]
158 to 159 °C | CCOC(=O)OC1=C(c2cc(C)c(C)cc2Br)C(=O)N(C)C12CCN(OC)CC2 [P1.20]
86 to 87 °C | CON1CCC2(CC1)C(O)=C(c1cc(Br)c(C)cc1C)C(=O)N2OC [P2ii.75]
128 °C (dec.) | COCON1C(=O)C(c2c(C)cc(-c3ccc(Cl)cc3)cc2C)=C(O)C12CCN(OC)CC2 [P2ii.15, 3-(4′-Chloro-3,5-dimethyl-biphenyl-4-yl)-4-hydroxy-8-methoxy-1-methoxymethoxy-1,8-diaza-spiro[4.5]dec-3-en-2-one]
223 to 225 °C | CON1CCC2(CC1)C(O)=C(c1c(C)cc(C)cc1C)C(=O)N2CC1CC1 [P2.8, 1-Cyclopropylmethyl-4-hydroxy-8-methoxy-3-(2,4,6-trimethyl-phenyl)-1,8-diaza-spiro[4.5]dec-3-en-2-one]
137 to 139 °C | CON1CCC2(CC1)C(O)=C(c1c(C)cc(Cl)cc1C)C(=O)N2OC1CCCO1 (stereo not shown) [P2ii.105]
183 to 186 °C | CON1CCC2(CC1)C(O)=C(c1cc(C)c(C)cc1C)C(=O)N2C [P2.25]
161 to 164 °C | COCCON1C(=O)C(c2c(C)cc(Cl)cc2C)=C(O)C12CCN(OC)CC2 [P2ii.101]
155 to 158 °C | COCON1C(=O)C(c2c(F)ccc(C)c2Cl)=C(O)C12CCN(OC)CC2 [P2ii.60]
122 to 125 °C | CCOC(=O)OC1=C(c2c(C)cc(Cl)cc2C)C(=O)N(OC)C12CCN(OC)CC2 [P1ii.114]
182 to 183 °C | CON1CCC2(CC1)C(O)=C(c1cc(Br)c(C)cc1C)C(=O)N2C [P2.28]

More lines, now with the values behind:

Structure (SMILES) | melting point
COCON1C(=O)C(c2cc(C)ccc2C)=C(OC(=O)CC(C)(C)C)C12CCN(OC)CC2 [P1ii.5] | 93 to 95 °C
COCON1C(=O)C(c2cc(Br)c(F)cc2C)=C(O)C12CCN(OC)CC2 [P2ii.89] | 64 to 67 °C
COCON1C(=O)C(c2cc(C)ccc2C)=C(OC)C12CCN(OC)CC2 [P1ii.31] | 91 to 93 °C
CCOC(=O)OC1=C(c2c(F)ccc(C)c2Cl)C(=O)N(OCOC)C12CCN(OC)CC2 [P1ii.61] | 116 to 119 °C
COCCON1C(=O)C(c2cc(Br)c(F)cc2C)=C(O)C12CCN(OC)CC2 [P2ii.87] | 71 to 74 °C
CCOC(=O)OC1=C(c2c(Cl)ccc(C)c2F)C(=O)N(OC2CCCC2)C12CCN(OC)CC2 [P1ii.43] | 135 to 137 °C

Test system: ALM07 strain (Neonicotinoid and pyrethroid resistant) of the Tobacco Whitefly (Bemisia tabaci)
Assay: Example B2c: Bemisia tabaci residual activity, preventive egg lay (cotton seedlings), resistant strain
Assay type: in vivo
Details: Concentration giving 50% control of resistant (ALM07) whitefly egg lay / same for susceptible whitefly; Bemisia tabaci on cotton seedlings, 3 days after exposure
Source text: (§1) The level of resistance and therefore the impact on the performance of the insecticide can be measured by the use of a ‘Resistance Factor’. The resistance factor can be calculated by dividing the concentration of an insecticide that provides a set level of mortality (i.e. 80%) for the ‘resistant’ strain with the concentration of the same insecticide that provides the same level of mortality for the ‘susceptible’ insect of the same species and life-stage. Although there are no set rules, a low value (1-10) indicates no cross-resistance and only natural levels of variation and a high value (50+) provides strong evidence of cross-resistance.
c) Neonicotinoid and Pyrethroid Resistant Strain of the Tobacco Whitefly (Bemisia tabaci)
Bemisia tabaci strains utilised: • Standard screening strain of Bemisia tabaci (Neonicotinoid susceptible) • ALM07 strain of […] (Neonicotinoid and pyrethroid resistant) and originally provided by Rothamsted Research, UK. (>250 RF in residual mortality bioassay of adult whitefly with thiamethoxam). Bioassay Method: […]
Cotton seedlings, with all but a single leaf removed are treated with the diluted test solutions in a turn table spray chamber. […] 3 days after exposure, the total number of adult whitefly and the total number of whitefly eggs laid on the leaf are counted. Percentage control of egg lay is calculated and corrected for control mortality.

Structure (SMILES) | Resistance Factor (RF50)
CCOC(=O)OC1=C(c2c(C)cc(C)cc2C)C(=O)N(C)C12CCN(OC)CC2 [drawing 476] | 4

Test system: IND3 strain of Nilaparvata lugens (Neonicotinoid resistant)
Assay: Example B2b: Nilaparvata lugens larvicide, feeding/contact activity, preventive (rice seedlings), resistant strain
Assay type: in vivo
Details: Lowest concentration giving greater than 80% mortality of resistant (IND3) hoppers / same for susceptible hoppers; Nilaparvata lugens N3 nymphs on rice seedlings, 6 and 12 days after treatment
Source text: as §1
b) Neonicotinoid Resistant Strain of the Brown Planthopper (Nilaparvata lugens)
Nilaparvata lugens strains utilised: • Standard screening strain of Nilaparvata lugens (Neonicotinoid susceptible) • IND3 strain of Nilaparvata lugens (Neonicotinoid resistant) Bioassay Method:
Nilaparvata lugens: larvicide, feeding/contact activity, preventive
Rice seedlings are treated with the diluted test solutions in a turn table spray chamber. After drying, they are infested with 20 N3 nymphs. 6 and 12 days after the treatment samples are checked for mortality, growth regulation, and effects on the F1 generation.

Structure (SMILES) | Resistance Factor (RF80)
CCOC(=O)OC1=C(c2c(C)cc(C)cc2C)C(=O)N(OCC)C12CCN(OC)CC2 [drawing 473] | <1
CCOC(=O)OC1=C(c2c(C)cc(C)cc2C)C(=O)N(OC2CCCO2)C12CCN(OC)CC2 (stereo not shown) | 1
CN1COCN(Cc2cnc(Cl)s2)/C1=N\[N+](=O)[O-] [thiamethoxam, reference compound] | >64
CON1CCC2(CC1)C(=O)C(c1c(C)cc(C)cc1C)C(=O)N2C (stereo not shown) | 1
CCOC(=O)OC1=C(c2c(C)cc(Cl)cc2C)C(=O)N(C)C12CCN(OC)CC2 | 4

Same assay, conditions: neonicotinoid resistant IND3 versus susceptible Nilaparvata lugens

Structure (SMILES) | Resistance factor (RF)
CN1COCN(Cc2cnc(Cl)s2)/C1=N\[N+](=O)[O-] [thiamethoxam, reference compound] | high

Test system: Myzus Persicae (Green Peach Aphid)
Assay: Example B1: Myzus persicae mixed population, feeding/residual contact activity, preventive (sunflower leaf discs)
Assay type: in vivo
Details: foliar, 144 h, A: neonicotinoid insecticides susceptible Myzus persicae (mixed age population), 6 DAT, read-out: Mortality (A)
Procedure: Myzus Persicae (Green Peach Aphid): Mixed Population, Feeding/Residual Contact Activity, Preventive
Sunflower leaf discs are placed on agar in a 24-well microtiter plate and sprayed with test solutions. After drying, the leaf discs are infested with an aphid population of mixed ages. After an incubation period of 6 DAT, samples are checked for mortality.

Structure (SMILES) | mortality at 200 ppm
CCOC(=O)OC1=C(c2c(C)cc(C)cc2C)C(=O)N(C)C12CCN(OC)CC2 [P1.2, Carbonic acid ethyl ester 8-methoxy-1-methyl-2-oxo-3-(2,4,6-trimethyl-phenyl)-1,8-diaza-spiro[4.5]dec-3-en-4-yl ester] | 95%

Same assay, conditions: foliar, 144 h, B: neonicotinoid insecticides resistant Myzus persicae (mixed age population), 6 DAT, read-out: Mortality (B)

Structure (SMILES) | mortality at 200 ppm
CCOC(=O)OC1=C(c2c(C)cc(C)cc2C)C(=O)N(C)C12CCN(OC)CC2 [P1.2, Carbonic acid ethyl ester 8-methoxy-1-methyl-2-oxo-3-(2,4,6-trimethyl-phenyl)-1,8-diaza-spiro[4.5]dec-3-en-4-yl ester] | 90%

Test system: FRC-P strain of Myzus persicae (Neonicotinoid resistant)
Assay: Example B2a: Myzus persicae mixed population, contact activity, curative on pea seedlings, resistant strain
Assay type: in vivo
Details: Lowest concentration giving greater than 80% mortality of resistant (FRC-P) aphids / same for susceptible aphids; Myzus persicae on pea seedlings, spray, 6 days after treatment
Source text: as §1
a) Neonicotinoid and Pyrethroid Resistant Strain of the Green Peach Aphid (Myzus persicae)
Myzus persicae strains utilised: • Standard screening strain of Myzus persicae (Neonicotinoid susceptible) • FRC-P strain of Myzus persicae (Neonicotinoid resistant) Bioassay Method:
Myzus persicae: mixed population, contact activity, curative on pea seedlings
Pea seedlings, infested with an aphid population of mixed ages, are treated with the test solutions in a spray chamber. 6 days after treatment, samples are checked for mortality.

Structure (SMILES) | Resistance Factor (RF80)
CCOC(=O)OC1=C(c2c(C)cc(Cl)cc2C)C(=O)NC12CCN(OC)CC2 | <1
CON1CCC2(CC1)NC(=O)C(c1c(C)cc(C)cc1C)C2=O (stereo not shown) | 4
CCOC(=O)OC1=C(c2c(C)cc(C)cc2C)C(=O)NC12CCN(OC)CC2 | 4
CON1CCC2(CC1)C(=O)C(c1c(C)cc(C)cc1C)C(=O)N2OC1CCCO1 (stereo not shown) | <1
CON1CCC2(CC1)NC(=O)C(c1c(C)cc(Cl)cc1C)C2=O (stereo not shown) | 1
CN1COCN(Cc2cnc(Cl)s2)/C1=N\[N+](=O)[O-] [thiamethoxam, reference compound] | >250
CCOC(=O)OC1=C(c2c(C)cc(C)cc2C)C(=O)N(OCC)C12CCN(OC)CC2 [drawing 468] | 4
CCOC(=O)OC1=C(c2c(C)cc(C)cc2C)C(=O)N(C)C12CCN(OC)CC2 [drawing 471] | 1

Same assay, conditions: neonicotinoid resistant FRC-P versus susceptible Myzus persicae; mortality 6 days after treatment

Structure (SMILES) | Resistance factor (RF)
CN1COCN(Cc2cnc(Cl)s2)/C1=N\[N+](=O)[O-] [thiamethoxam, reference compound] | high
